Results as given in PubChem BioAssay AID1645848.
In brackets after ≈: the same amount, converted by molar mass.

Conditions: buffer; pH 7.4; 6.0 h; 150.0 µM

| Compound | solubility kinetic [µg/mL] |
| --- | --- |
| Nc1c(C(=O)Nc2ccc(F)cc2)sc2nc(-c3cccs3)cc(C(F)(F)F)c12 | < 1 |
| CC(C)NC(=O)c1nc(-c2ccc(Cl)nc2)c2ccccn12 | 17.2 (≈ 54.6 µM) |
| COc1ccccc1C(=O)Nc1nnc(SCc2cc(=O)c3ccccc3[nH]2)s1 | < 1 |
| CCN1C(=O)c2ccccc2[S@](=O)c2ccc(C(=O)NCc3ccc(C#N)cc3)cc21 | 29.4 (≈ 68.5 µM) |
| CCCOC(c1cc2nccc(C(=O)O)c2[nH]1)c1ccccc1Cl (stereo not given) | > 51 |
| NC1CCN(c2nc(-c3ccc(Br)cc3)cs2)CC1 | 8.9 (≈ 26.3 µM) |
| COc1cc(OC)cc(-c2csc(N3CCC(C(N)=O)CC3)n2)c1 | > 51 |
| Cc1ccnc(NC(=S)N2CCN(c3ccc(Cl)c(Cl)c3)CC2)c1 | < 1 |
| CC(C)(C)n1cnc2cc(C(=O)N3CCCCC3)ccc21 | > 42 |
| CC(C)(C)C1CCc2c(sc(NC(=O)c3ccncc3)c2C(N)=O)C1 (stereo not given) | < 1 |
| COC(=O)Nc1nc2ccc(Sc3ccccc3)cc2[nH]1 | < 1 |
| CNC(=O)c1ccc(C)c(-n2c(C)cc(OCc3ccc(F)cc3F)c(Br)c2=O)c1 | > 100 |
| CCN(c1cc(C#CCN2CCOCC2)cc(C(=O)NCc2c(C)cc(C)[nH]c2=O)c1C)C1CCC(N(C)CCOC)CC1 (stereo not given) | > 89 |
| CC1=C(C(=O)NC2CCCC2)C(c2nn(C)cc2Cl)N=C(Nc2nc3ccccc3o2)N1 (stereo not given) | 10 (≈ 22 µM) |
| COc1cc(Cl)c(C)cc1Nc1c2c(nc3ccccc13)CCC2 | 3.79 (≈ 11.2 µM) |
| O=c1n(-c2ccc(Cl)cc2)nc2n1CCN(Cc1ccc(C(F)(F)F)cc1)C2 | < 1 |
| CCOc1ccc(CCNC(=O)c2cc3ccccc3n2Cc2cc(C)cc(C)n2)cc1OCC | < 1 |
| Fc1ccc(-c2ccc(Nc3nc(-c4ccncc4)nc4ccccc34)cc2F)c(F)c1 | < 1 |
| Cc1ccc(S(=O)(=O)Nc2cnccc2C(=O)Nc2nc(-c3ccccc3F)cs2)cc1 | < 1 |
| COc1ccc(-n2c(C)c(C(C)=O)c3cc(O)ccc32)cc1 | 5.69 (≈ 19.3 µM) |
| COc1cnccc1-c1nc(Nc2ccc(F)c(F)c2)c2ccccc2n1 | > 54 |
| CCCc1cc(C)[nH]c(=O)c1CNC(=O)c1cc(-c2ccc(N3CCN(C(C)C)CC3)nc2)cc2c1cnn2C(C)C | 41.1 (≈ 72.1 µM) |
| CCOC(=O)c1ccc(-n2cnc3cc(C(=O)N4CCCCC4)ccc32)cc1 | > 56 |
| COc1cc2c(c(OC)c1OC)-c1ccc(SC)c(=O)cc1C(N)CC2 (stereo not given) | > 55 |
| O=C(c1csnn1)N1CCC2(CCCN(C(c3ccccc3)c3ccccc3)C2)CC1 | < 1 |

| Compound | solubility kinetic [µg/mL] |
| --- | --- |
| CC(C)Oc1ccc(CNC(=O)C2CCN(C(=O)N3CCOc4ccc(Cl)cc43)CC2)cc1 | 9.14 (≈ 19.4 µM) |
| Cc1cccc(C(=O)N2CCc3cc(-c4nc(NC(=O)Cc5ccc6c(c5)OCO6)sc4C)ccc32)c1 | 4.07 (≈ 7.96 µM) |
| CC(C)(O)/C=C\C(=O)[C@](C)(O)[C@H]1[C@H](O)C[C@]2(C)[C@@H]3CC=C4[C@@H](C=C(O)C(=O)C4(C)C)[C@]3(C)C(=O)C[C@@]12C | > 51 |
| c1ccc2c(Nc3ccc4nc[nH]c4c3)nc(-c3ccncc3)nc2c1 | < 1 |
| COc1ccc(CCNc2ncnc3c2c(-c2ccccc2)cn3-c2cccc(Cl)c2)cc1OC | < 1 |
| Cc1nc(NCc2ccco2)nc2c1C(=O)CC(C)C2 (stereo not given) | > 40 |
| CC(C)(C)OC(=O)N1CCN(c2ccc(NCc3ccc(-c4ccc(C#N)cc4)o3)cc2)CC1 | 9.31 (≈ 20.3 µM) |
| CNC1CCC(N(Cc2ccc(OC)c(-c3ccc(C#N)cc3)c2)C(=O)c2sc3ccccc3c2Cl)CC1 (stereo not given) | 16.7 (≈ 30.7 µM) |
| CN(C)c1ccc(-c2cc[nH]c(=O)c2N)cc1 | > 34 |
| COc1cc(NS(=O)(=O)c2ccc(C)cc2)cc(C(=O)Nc2nc(-c3ccccc3)cs2)c1 | < 1 |
| Cn1c(=O)c2c(-c3ccc(Br)cc3)n(CCc3ccccc3)cc2n(C)c1=O | 14.7 (≈ 33.5 µM) |
| CC1=NN(c2ccc(C(=O)O)cc2)C(=O)/C1=C/c1ccc(-c2cc(C)c(C)cc2[N+](=O)[O-])o1 | 1.01 (≈ 2.26 µM) |
| O=C(O)c1ccnc2cc(C(OCCN3CCCCC3)c3ccccc3Cl)[nH]c12 (stereo not given) | > 61 |
| O=C(Nc1ccc(OC(F)(F)Cl)cc1)c1cnc(N2CC[C@@H](O)C2)c(-c2ccn[nH]2)c1 | 14.6 (≈ 32.4 µM) |
| CCN(CC)C(=O)c1ccc(O)c(OC)c1 | 27.3 (≈ 122 µM) |
| O=C1Nc2c(Cl)cccc2/C1=C\c1cc(Cl)c(O)c(Cl)c1 | 7.3 (≈ 21.4 µM) |
| c1ccc2c(Nc3nccs3)nc(-c3ccncc3)nc2c1 | < 1 |
| CCOc1ccc(CCNC(=O)c2cc3ccccc3n2Cc2cccc(C)n2)cc1OCC | < 1 |
| Cc1ccc(S(=O)(=O)c2cnc(SC(C)C(=O)Nc3ccccc3)[nH]c2=O)cc1 (stereo not given) | > 63 |
| CCOC(=O)c1cc(C)sc1NC(=O)c1ccc(Cl)s1 | < 1 |
| Cc1cccc(C)c1Nc1c(-c2ccccn2)nc2ccc(Cl)cn12 | < 1 |
| Cc1ccc(C(=O)N2CCc3c(nc4cc(-c5ccccc5)[nH]n4c3=O)C2)cn1 | 8.67 (≈ 22.5 µM) |
| COc1cc(-c2c(C#N)c(N)nc3c2c(C)nn3-c2ccc(F)cc2)ccc1O | < 1 |
| Cc1ccc(-c2cc(C(=O)NC3CCCCC3)c3ccccc3n2)cc1 | < 1 |
| COc1ccc(Nc2nc(-c3cccc(OC)c3)no2)cc1 | < 1 |
